Data published in patent publication US9125913B2, “Bcl-2-selective apoptosis-inducing agents for the treatment of cancer and immune diseases” (AbbVie Inc., priority 2008, dated 2015).

Test system: GST-Bcl-2
Assay: TR-FRET binding assay, Bcl-2
Conditions: TR-FRET Ki values
Method in brief: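 Compounds serially diluted in DMSO from 50 μM (2× starting concentration, 10% DMSO), mixed with GST-tagged protein, F-Bak peptide probe and Tb-labeled antibody, incubated 3 h at room temperature.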

SMILES | Binding selectivity ratio (Bcl-XL Ki/Bcl-2 Ki)
CNc1ccc(S(=O)(=O)NC(=O)c2ccc(N3CCN(CC4=C(c5ccc(Cl)cc5)CC(C)(C)CC4)CC3)cc2Oc2cccc3[nH]ccc23)cc1[N+](=O)[O-] [EXAMPLE 246, 4-(4-{[2-(4-chlorophenyl)-4,4-dimethylcyclohex-1-en-1-yl]methyl}piperazin-1-yl)-2-(1H-indol-4-yloxy)-N-{[4-(methylamino)-3-nitrophenyl]sulfonyl}benzamide] | 490.9
CC1(C)CCC(CN2CCN(c3ccc(C(=O)NS(=O)(=O)c4ccc(NCCN5CCOCC5)c(S(=O)(=O)C(F)(F)F)c4)c(Oc4ccc5[nH]ccc5c4)c3)CC2)=C(c2ccc(Cl)cc2)C1 [EXAMPLE 351, 4-(4-{[2-(4-chlorophenyl)-4,4-dimethylcyclohex-1-en-1-yl]methyl}piperazin-1-yl)-2-(1H-indol-5-yloxy)-N-({4-[(2-morpholin-4-ylethyl)amino]-3-[(trifluoromethyl)sulfonyl]phenyl}sulfonyl)benzamide] | >418.7
CC1(C)CCC(CN2CCN(c3ccc(C(=O)NS(=O)(=O)c4ccc(NC5CCN(CC(F)(F)F)CC5)c([N+](=O)[O-])c4)c(Oc4cccc5[nH]ccc45)c3)CC2)=C(c2ccc(Cl)cc2)C1 [Example 108, 4-(4-{[2-(4-chlorophenyl)-4,4-dimethylcyclohex-1-en-1-yl]methyl}piperazin-1-yl)-2-(1H-indol-4-yloxy)-N-[(3-nitro-4-{[1-(2,2,2-trifluoroethyl)piperidin-4-yl]amino}phenyl)sulfonyl]benzamide] | 25.5
CC1(C)CCC(CN2CCN(c3ccc(C(=O)NS(=O)(=O)c4ccc(NCC5CCOCC5)c([N+](=O)[O-])c4)c(Oc4ccc5[nH]ccc5c4)c3)CC2CO)=C(c2ccc(Cl)cc2)C1 (stereo not shown) [EXAMPLE 236, 4-[4-{[2-(4-chlorophenyl)-4,4-dimethylcyclohex-1-en-1-yl]methyl}-3-(hydroxymethyl)piperazin-1-yl]-2-(1H-indol-5-yloxy)-N-({3-nitro-4-[(tetrahydro-2H-pyran-4-ylmethyl)amino]phenyl}sulfonyl)benzamide] | >1787.6
CN1CCN(Nc2ccc(S(=O)(=O)NC(=O)c3ccc(N4CCN(CC5=C(c6ccc(Cl)cc6)CC(C)(C)CC5)CC4)cc3Oc3ccc4[nH]ccc4c3)cc2S(=O)(=O)C(F)(F)F)CC1 [EXAMPLE 220, 4-(4-{[2-(4-chlorophenyl)-4,4-dimethylcyclohex-1-en-1-yl]methyl}piperazin-1-yl)-2-(1H-indol-5-yloxy)-N-({4-[(4-methylpiperazin-1-yl)amino]-3-[(trifluoromethyl)sulfonyl]phenyl}sulfonyl)benzamide] | 163.7
CC1(C)CCC(CN2CCN(c3ccc(C(=O)NS(=O)(=O)c4ccc(NCC5CCC(F)(F)CC5)c([N+](=O)[O-])c4)c(Oc4cccc5[nH]cnc45)c3)CC2)=C(c2ccc(Cl)cc2)C1 [EXAMPLE 456, 2-(1H-benzimidazol-4-yloxy)-4-(4-{[2-(4-chlorophenyl)-4,4-dimethylcyclohex-1-en-1-yl]methyl}piperazin-1-yl)-N-[(4-{[(4,4-difluorocyclohexyl)methyl]amino}-3-nitrophenyl)sulfonyl]benzamide] | 53.991
CC1(C)CCC(CN2CCN(c3ccc(C(=O)NS(=O)(=O)c4cnc(OC[C@@H]5CCN(CC(F)F)C5)c(Cl)c4)c(Oc4cccc5[nH]ncc45)c3)CC2)=C(c2ccc(Cl)cc2)C1 [EXAMPLE 445, N-[(5-chloro-6-{[(3R)-1-(2,2-difluoroethyl)pyrrolidin-3-yl]methoxy}pyridin-3-yl)sulfonyl]-4-(4-{[2-(4-chlorophenyl)-4,4-dimethylcyclohex-1-en-1-yl]methyl}piperazin-1-yl)-2-(1H-indazol-4-yloxy)benzamide] | 484.2
CC(C1=C(c2ccc(Cl)cc2)CC(C)(C)CC1)N1CCN(c2ccc(C(=O)NS(=O)(=O)c3ccc(NN4CCN(C)CC4)c([N+](=O)[O-])c3)c(Oc3ccc4[nH]ccc4c3)c2)CC1 (stereo not shown) [EXAMPLE 254, 4-(4-{1-[2-(4-chlorophenyl)-4,4-dimethylcyclohex-1-en-1-yl]ethyl}piperazin-1-yl)-2-(1H-indol-5-yloxy)-N-({4-[(4-methylpiperazin-1-yl)amino]-3-nitrophenyl}sulfonyl)benzamide] | 421.7
CO[C@H]1CC[C@H](CNc2ccc(S(=O)(=O)NC(=O)c3ccc(N4CCN(CC5=C(c6ccc(Cl)cc6)CC(C)(C)CC5)CC4)cc3Oc3ccc4[nH]ccc4c3)cc2[N+](=O)[O-])CC1 [EXAMPLE 311, Trans-4-(4-{[2-(4-chlorophenyl)-4,4-dimethylcyclohex-1-en-1-yl]methyl}piperazin-1-yl)-2-(1H-indol-5-yloxy)-N-[(4-{[(4-methoxycyclohexyl)methyl]amino}-3-nitrophenyl)sulfonyl]benzamide] | >2538.5
O=C(NS(=O)(=O)c1ccc(NCC2CCOCC2)c([N+](=O)[O-])c1)c1ccc(N2CCN(CC3=C(c4ccc(Cl)cc4)CCN(CCCO)C3)CC2)cc1Oc1cccc2[nH]ccc12 [EXAMPLE 355, 4-(4-{[4-(4-chlorophenyl)-1-(3-hydroxypropyl)-1,2,5,6-tetrahydropyridin-3-yl]methyl}piperazin-1-yl)-2-(1H-indol-4-yloxy)-N-({3-nitro-4-[(tetrahydro-2H-pyran-4-ylmethyl)amino]phenyl}sulfonyl)benzamide] | >5489.5
CC1(C)CCC(CN2CCN(c3ccc(C(=O)NS(=O)(=O)c4ccc(NC5CCN(C6CCOCC6)CC5)c([N+](=O)[O-])c4)c(Oc4cccc5[nH]ncc45)c3)CC2)=C(c2ccc(Cl)cc2)C1 [EXAMPLE 401, 4-(4-{[2-(4-chlorophenyl)-4,4-dimethylcyclohex-1-en-1-yl]methyl}piperazin-1-yl)-2-(1H-indazol-4-yloxy)-N-({3-nitro-4-[(1-tetrahydro-2H-pyran-4-ylpiperidin-4-yl)amino]phenyl}sulfonyl)benzamide] | >162.14
CNc1ccc(S(=O)(=O)NC(=O)c2ccc(N3CCN(CC4=C(c5ccc(Cl)cc5)CC(C)(C)CC4)CC3)cc2Oc2ccc3[nH]ccc3c2)cc1S(=O)(=O)C(F)(F)F [EXAMPLE 328, 4-(4-{[2-(4-chlorophenyl)-4,4-dimethylcyclohex-1-en-1-yl]methyl}piperazin-1-yl)-2-(1H-indol-5-yloxy)-N-({4-(methylamino)-3-[(trifluoromethyl)sulfonyl]phenyl}sulfonyl)benzamide] | >355.0
CN1CCN(c2ccc(S(=O)(=O)NC(=O)c3ccc(N4CCN(CC5=C(c6ccc(Cl)cc6)CC(C)(C)CC5)CC4)cc3Oc3ccc4[nH]ccc4c3)cc2[N+](=O)[O-])CC1 [Example 107, 4-(4-{[2-(4-chlorophenyl)-4,4-dimethylcyclohex-1-en-1-yl]methyl}piperazin-1-yl)-2-(1H-indol-5-yloxy)-N-{[4-(4-methylpiperazin-1-yl)-3-nitrophenyl]sulfonyl}benzamide] | 62.5
COCCN1CCC(Nc2ccc(S(=O)(=O)NC(=O)c3ccc(N4CCN(CC5=C(c6ccc(Cl)cc6)CC(C)(C)CC5)CC4)cc3Oc3ccc4[nH]ccc4c3)cc2[N+](=O)[O-])CC1 [EXAMPLE 189, 4-(4-{[2-(4-chlorophenyl)-4,4-dimethylcyclohex-1-en-1-yl]methyl}piperazin-1-yl)-2-(1H-indol-5-yloxy)-N-[(4-{[1-(2-methoxyethyl)piperidin-4-yl]amino}-3-nitrophenyl)sulfonyl]benzamide] | 358.6
CC1(C)CCC(CN2CCN(c3ccc(C(=O)NS(=O)(=O)c4ccc(NCc5cncs5)c([N+](=O)[O-])c4)c(Oc4ccc5[nH]ccc5c4)c3)CC2)=C(c2ccc(Cl)cc2)C1 [EXAMPLE 288, 4-(4-{[2-(4-chlorophenyl)-4,4-dimethylcyclohex-1-en-1-yl]methyl}piperazin-1-yl)-2-(1H-indol-5-yloxy)-N-({3-nitro-4-[(1,3-thiazol-5-ylmethyl)amino]phenyl}sulfonyl)benzamide] | >3730.9
CC1(C)CCC(CN2CCN(c3ccc(C(=O)NS(=O)(=O)c4cnc(OCC5CCOCC5)c(-c5nccs5)c4)c(Oc4ccc5[nH]ccc5c4)c3)CC2)=C(c2ccc(Cl)cc2)C1 [EXAMPLE 331, 4-(4-{[2-(4-chlorophenyl)-4,4-dimethylcyclohex-1-en-1-yl]methyl}piperazin-1-yl)-2-(1H-indol-5-yloxy)-N-{[6-(tetrahydro-2H-pyran-4-ylmethoxy)-5-(1,3-thiazol-2-yl)pyridin-3-yl]sulfonyl}benzamide] | >79.8
CN(C)CCCCNc1ccc(S(=O)(=O)NC(=O)c2ccc(N3CCN(Cc4ccccc4-c4ccc(Cl)cc4)CC3)cc2Oc2ccccc2)cc1[N+](=O)[O-] [Example 156, 4-{4-[(4′-chloro-1,1′-biphenyl-2-yl)methyl]piperazin-1-yl}-N-[(4-{[4-(dimethylamino)butyl]amino}-3-nitrophenyl)sulfonyl]-2-phenoxybenzamide] | 53.1
CC(C)n1cc(CN2CCN(c3ccc(C(=O)NS(=O)(=O)c4ccc(NCC5CCOCC5)c([N+](=O)[O-])c4)c(Oc4ccc5[nH]ccc5c4)c3)CC2)c(-c2ccc(Cl)cc2)cc1=O [EXAMPLE 307, 4-(4-{[4-(4-chlorophenyl)-1-isopropyl-6-oxo-1,6-dihydropyridin-3-yl]methyl}piperazin-1-yl)-2-(1H-indol-5-yloxy)-N-({3-nitro-4-[(tetrahydro-2H-pyran-4-ylmethyl)amino]phenyl}sulfonyl)benzamide] | >177.1
CC1(C)CCC(CN2CCN(c3ccc(C(=O)NS(=O)(=O)c4ccc(NC5CCC(N6CCOCC6)CC5)c([N+](=O)[O-])c4)c(Oc4ccc5[nH]ccc5c4)c3)CC2)=C(c2ccc(Cl)cc2)C1 (stereo not shown) [EXAMPLE 363, 4-(4-{[2-(4-chlorophenyl)-4,4-dimethylcyclohex-1-en-1-yl]methyl}piperazin-1-yl)-2-(1H-indol-5-yloxy)-N-({4-[(4-morpholin-4-ylcyclohexyl)amino]-3-nitrophenyl}sulfonyl)benzamide] | >3670.5
